Tested on: F. ulcerans ZTP riboswitch (pfl RNA, 75-nt aptamer domain, crystal construct) (RNA, riboswitch) UAUCAGUUAUAUGACUGACGGAACGUGGAAUUAACCACAUGAAGUAUAACGAUGACAAUGCCGACCGUCUGGGCG
Test: ITC
Details: 150 mM KCl, 10 mM MgCl2, 50 mM Hepes-KOH pH 7.4, 37 °C

SMILES: NC(=O)c1ncn(-c2cccnc2)c1N
- Kd (3% DMSO): 0.60 ± 0.06 µM

SMILES: NC(=O)c1ncn([C@@H]2O[C@H](CO)[C@@H](O)[C@H]2O)c1N
- Kd: 2.3 ± 0.6 µM

SMILES: NC(=O)c1ncn([C@@H]2O[C@H](COP(=O)(O)O)[C@@H](O)[C@H]2O)c1N
- Kd: 0.32 ± 0.13 µM

SMILES: NC(=O)c1nc[nH]c1N
- Kd: 41 ± 4 µM

SMILES: NC(=O)c1ncn(-c2ccccn2)c1N
- Kd: 5.6 ± 3.2 µM
